Experimental data reported in patent publication US10201499B2, “Nanoparticle formulation” (United Kingdom Research and Innovation, priority 2012, dated 2019).

Test system: HT-29 cells
Details: 5 mM; p<0.01 vs control
Method: FIG. 20. Mitochondrial calorimetry. HT-29 cells were treated with acetate (5 mM) or without (Control) and assessed for ATP production by the Seahorse assay in vitro.

SMILES: CC(=O)O [Acetate]
- ATP production: significantly increase
